Assay results: patent US4357326A, “Multi-glucopyranosyl-fructofuranosyl-galactopyranosyl-glucopyranoside sulfate salts and methods of use” (American Cyanamid Company, priority 1981, dated 1982)
Structures can show the parent of a compound that is named as a salt.

How the values were obtained:
[1] = test system: late components of human complement (C3-C9); assay: Test Code 035 (C3-C9 inhibitor), lysis of EAC 142; assay type: biochemical; details: in vitro; serial twofold dilution assay, higher well number indicates higher activity
Excerpt: (§1) An active inhibitor protects C2 from C1 and C4; (ii) Test Code 035 (C3-C9 inhibitor)--This test determines the ability of the late components of human complement (C3-C9) to lyse EAC 142 in the presence of appropriate dilutions of the test compound. An active inhibitor protects EAC 142 from lysis by human C3-C9; (iii) Test Code 036 (C-Shunt inhibitor)--In this test human erythrocytes rendered fragile are lysed in autologous serum via the shunt pathway activated by cobra venom factor in the presence of appropriate dilutions of the test compound. Inhibition of the shunt pathway results in failure of lysis; (iv) Cap 50 Test--Here, appropriate amounts of the test compound are added to a pool of guinea pig serum in vitro, after which the complement level is determined in undiluted serum by the serum capillary tube assay of U.S. Pat. No. 3,876,376. The concentration of compound inhibiting 50% is reported; and (v) Guinea Pig Intraperitoneal Test (GPIP)--Guinea pigs weighing about 300 g are dosed intraperitoneally (i.p.) with 200 mg/kg of the test compound dissolved in saline and adjusted to pH 7-8. Approximately 0.4 ml blood samples, taken by orbital sinus puncture 30 minutes and one hour after injections, are collected directly into centrifuge tubes; 5 ml blood samples, taken by decapitation 2 hours after injection are collected directly into disPo® beakers. The samples were allowed to clot, centrifuged, and the resultant sera were assayed for complement activity using the capillary complement assay referred to above. Percent inhibition is calculated by comparison with simultaneous controls. The results of the GPIP appear in Table I together with results of Test Code 026, 035, 036 and Cap 50.

[2] = test system: shunt pathway activated by cobra venom factor; assay: Test Code 036 (C-Shunt inhibitor), lysis of fragile human erythrocytes in autologous serum; assay type: cell-based; details: in vitro; serial twofold dilution assay, higher well number indicates higher activity
Excerpt: as §1

activated human C1 = activated human C1 (Homo sapiens, UniProt P09871); assay: Test Code 026 (C1 inhibitor); assay type: biochemical; details: in vitro; serial twofold dilution assay, higher well number indicates higher activity
Excerpt: as §1

[3] = test system: total hemolytic complement activity of human serum; details: in vitro and in vivo, judged by reduction in total hemolytic complement activity; cited from earlier work
[4] = test system: complement activity of sera; assay: Guinea Pig Intraperitoneal Test (GPIP); assay type: in vivo; details: 200 mg/kg i.p.
Excerpt: as §1

O=S(=O)(O)OC[C@H]1O[C@H](OC[C@H]2O[C@H](O[C@]3(COS(=O)(=O)O)O[C@H](CO[C@@H]4O[C@H](COS(=O)(=O)O)[C@@H](O[C@H]5O[C@H](COS(=O)(=O)O)[C@@H](O[C@H]6O[C@H](COS(=O)(=O)O)[C@@H](OS(=O)(=O)O)[C@H](OS(=O)(=O)O)[C@H]6OS(=O)(=O)O)[C@H](OS(=O)(=O)O)[C@H]5OS(=O)(=O)O)[C@H](OS(=O)(=O)O)[C@H]4OS(=O)(=O)O)[C@@H](OS(=O)(=O)O)[C@@H]3OS(=O)(=O)O)[C@H](OS(=O)(=O)O)[C@@H](OS(=O)(=O)O)[C@@H]2OS(=O)(=O)O)[C@H](OS(=O)(=O)O)[C@@H](OS(=O)(=O)O)[C@H]1OS(=O)(=O)O [drawing 23, O-α-D-Glucopyranosyl(1→4)-O-α-D-glucopyranosyl(1→4)-O-β-D-glucopyranosyl(1→6)-β-D-fructofuranosyl-O-α-D-galactopyranosyl(1→6)-α-D-glucopyranoside eicosakis(H-sulfate) eicosasalt with trimethylamine]
C-Late 035 Wells [1]: 2 Wells
C-Shunt Inhibition 036 Wells [2]: 5 Wells
C1 026 Wells (activated human C1): 9 Wells

O=S(=O)(O)OC[C@H]1O[C@H](OC[C@H]2O[C@H](O[C@]3(COS(=O)(=O)O)O[C@H](CO[C@@H]4O[C@H](COS(=O)(=O)O)[C@@H](O[C@H]5O[C@H](COS(=O)(=O)O)[C@@H](O[C@H]6O[C@H](COS(=O)(=O)O)[C@@H](O[C@H]7O[C@H](COS(=O)(=O)O)[C@@H](O[C@H]8O[C@H](COS(=O)(=O)O)[C@@H](O[C@H]9O[C@H](COS(=O)(=O)O)[C@@H](O[C@H]%10O[C@H](COS(=O)(=O)O)[C@@H](OS(=O)(=O)O)[C@H](OS(=O)(=O)O)[C@H]%10OS(=O)(=O)O)[C@H](OS(=O)(=O)O)[C@H]9OS(=O)(=O)O)[C@H](OS(=O)(=O)O)[C@H]8OS(=O)(=O)O)[C@H](OS(=O)(=O)O)[C@H]7OS(=O)(=O)O)[C@H](OS(=O)(=O)O)[C@H]6OS(=O)(=O)O)[C@H](OS(=O)(=O)O)[C@H]5OS(=O)(=O)O)[C@H](OS(=O)(=O)O)[C@H]4OS(=O)(=O)O)[C@@H](OS(=O)(=O)O)[C@@H]3OS(=O)(=O)O)[C@H](OS(=O)(=O)O)[C@@H](OS(=O)(=O)O)[C@@H]2OS(=O)(=O)O)[C@H](OS(=O)(=O)O)[C@@H](OS(=O)(=O)O)[C@H]1OS(=O)(=O)O [drawing 26, O-α-D-Glucopyranosyl(1→4)-[O-α-D-glucopyranosyl(1→4)]5 -O-β-D-glucopyranosyl(1→6)-β-D-fructofuranosyl-O-α-D-galactopyranosyl(1→6)-α-D-glucopyranoside dotriacontakis(H-sulfate), dotriacontasodium salt]
C-Late 035 Wells [1]: 3 Wells
C-Shunt Inhibition 036 Wells [2]: 5 Wells
C1 026 Wells (activated human C1): 9 Wells

pentosanpolysulfoester
anticomplementary activity on human serum [3]: has an anticomplementary activity on human serum, both in vitro and in vivo

O=S(=O)(O)OC[C@H]1O[C@H](OC[C@H]2O[C@H](O[C@]3(COS(=O)(=O)O)O[C@H](CO[C@@H]4O[C@H](COS(=O)(=O)O)[C@@H](O[C@H]5O[C@H](COS(=O)(=O)O)[C@@H](O[C@H]6O[C@H](COS(=O)(=O)O)[C@@H](O[C@H]7O[C@H](COS(=O)(=O)O)[C@@H](O[C@H]8O[C@H](COS(=O)(=O)O)[C@@H](O[C@H]9O[C@H](COS(=O)(=O)O)[C@@H](O[C@H]%10O[C@H](COS(=O)(=O)O)[C@@H](OS(=O)(=O)O)[C@H](OS(=O)(=O)O)[C@H]%10OS(=O)(=O)O)[C@H](OS(=O)(=O)O)[C@H]9OS(=O)(=O)O)[C@H](OS(=O)(=O)O)[C@H]8OS(=O)(=O)O)[C@H](OS(=O)(=O)O)[C@H]7OS(=O)(=O)O)[C@H](OS(=O)(=O)O)[C@H]6OS(=O)(=O)O)[C@H](OS(=O)(=O)O)[C@H]5OS(=O)(=O)O)[C@H](OS(=O)(=O)O)[C@H]4OS(=O)(=O)O)[C@@H](OS(=O)(=O)O)[C@@H]3OS(=O)(=O)O)[C@H](OS(=O)(=O)O)[C@@H](OS(=O)(=O)O)[C@@H]2OS(=O)(=O)O)[C@H](OS(=O)(=O)O)[C@@H](OS(=O)(=O)O)[C@H]1OS(=O)(=O)O [drawing 25, O-α-D-Glucopyranosyl(1→4)-[O-α-D-glucopyranosyl(1→4)]5 -O-β-D-glucopyranosyl(1→6)-β-D-fructofuranosyl-O-α-D-galactopyranosyl(1→6)-α-D-glucopyranoside dotriacontakis(H-sulfate), dotriacontasalt with trimethylamine]
C-Late 035 Wells [1]: 1 Wells
C-Shunt Inhibition 036 Wells [2]: 4 Wells
C1 026 Wells (activated human C1): 9 Wells

O=S(=O)(O)OC[C@H]1O[C@H](OC[C@H]2O[C@H](O[C@]3(COS(=O)(=O)O)O[C@H](CO[C@@H]4O[C@H](COS(=O)(=O)O)[C@@H](O[C@H]5O[C@H](COS(=O)(=O)O)[C@@H](O[C@H]6O[C@H](COS(=O)(=O)O)[C@@H](OS(=O)(=O)O)[C@H](OS(=O)(=O)O)[C@H]6OS(=O)(=O)O)[C@H](OS(=O)(=O)O)[C@H]5OS(=O)(=O)O)[C@H](OS(=O)(=O)O)[C@H]4OS(=O)(=O)O)[C@@H](OS(=O)(=O)O)[C@@H]3OS(=O)(=O)O)[C@H](OS(=O)(=O)O)[C@@H](OS(=O)(=O)O)[C@@H]2OS(=O)(=O)O)[C@H](OS(=O)(=O)O)[C@@H](OS(=O)(=O)O)[C@H]1OS(=O)(=O)O [drawing 24, O-α-D-Glucopyranosyl(1→4)-O-α-D-glucopyranosyl(1→4)-O-β-D-glucopyranosyl(1→6)-β-D-fructofuranosyl-O-α-D-galactopyranosyl(1→6)-α-D-glucopyranoside eicosakis(H-sulfate), eicosasodium salt]
C-Late 035 Wells [1]: 1 Wells
In vivo Activity (Guinea pigs) % Inhibition Intraperitoneal, 30 minutes ([4]; blood sample 30 minutes after injection): 49%
In vivo Activity (Guinea pigs) % Inhibition Intraperitoneal, 60 minutes ([4]; blood sample 60 minutes after injection): 67%
In vivo Activity (Guinea pigs) % Inhibition Intraperitoneal, 120 minutes ([4]; blood sample 120 minutes after injection): 78%
C-Shunt Inhibition 036 Wells [2]: 6 Wells
C1 026 Wells (activated human C1): 9 Wells
